This note sets out measurements from ChEMBL document CHEMBL3352299, “Antiproliferative 4-(1,2,4-oxadiazol-5-yl)piperidine-1-carboxamides, a new tubulin inhibitor chemotype” (Bioorg Med Chem Lett, 2014).

Molecules are shown by their SMILES.

Experiment [1] deals with DU-145. Description: Antiproliferative activity against human DU145 cells at 50 uM after 3 days by fluorescence assay. It counts as functional. Conditions: DU-145, 72 h, read-out: GI.
Experiment [2] deals with DU-145. Description: Antiproliferative activity against human DU145 cells after 3 days by fluorescence assay. Conditions: DU-145, 72 h. It is filed as functional.

Broadly, the GI50 is the concentration at which growth is held to half of that of the control. Read a high GI50 as lower sensitivity of the cells.

With `O=C(NCc1ccsc1)N1CCCC(c2nc(Cc3ccccc3)no2)C1` (configuration not stated), in experiment [1], the inhibition of growth at 50 µM is under 20%.

Consider `COCCNC(=O)N1CCC(c2nc(-c3ccc(F)cc3)no2)CC1`, for which, in experiment [1], the inhibition of growth at 50 µM is under 20%.

The compound `COc1cc(OC)cc(-c2noc(C3CCN(C(=O)NCc4ccccc4)CC3)n2)c1` had a GI50 in experiment [2] of 4400 nM.

As to `Cc1cc(CNC(=O)N2CCC(c3nc(Cc4ccccc4)no3)CC2)nn1C`, the GI50 in experiment [2] was 950 nM.

Regarding `O=C(N1CCC(c2nc(-c3ccc(F)cc3)no2)CC1)N1CCCc2ccccc21`, the inhibition of growth at 50 µM in experiment [1] is under 20%.

Turning to `CC(C)(C)NC(=O)N1CCC(c2nc(-c3ccc(F)cc3)no2)CC1`, in experiment [1], the inhibition of growth at 50 µM is under 20%.

`O=C(NCc1ccco1)N1CCC(c2nc(-c3ccc(F)cc3)no2)CC1` returned a 50% growth inhibitory concentration (GI50) in experiment [2] of 3300 nM.

Turning to `COC(=O)CNC(=O)N1CCC(c2nc(-c3ccc(F)cc3)no2)CC1`, in experiment [1], the inhibition of growth at 50 µM is under 20%.

In experiment [2], `O=C(NCc1ccccc1)N1CCC(c2nc(Cc3ccccc3)no2)CC1` gave a GI50 of 760 nM.

`O=C(NCc1ccoc1)N1CCC(c2nc(-c3ccc(F)cc3)no2)CC1` yielded a GI50 in experiment [2] of 1100 nM.

`O=C(NCc1ccccc1)N1CCC(c2nc(CCN3CCc4ccccc4C3)no2)CC1` yielded a concentration for 50% growth inhibition (GI50) in experiment [2] of 8600 nM.

In the case of `O=C(NCc1ccsc1)N1CCCCC1c1nc(Cc2ccccc2)no1` (configuration not stated), in experiment [1], the inhibition of growth at 50 µM is under 20%.

Consider `O=C(NCc1ccsc1)N1CCC(c2nc(COc3ccccc3)no2)CC1`, for which the GI50 in experiment [2] amounted to 1700 nM. This counts as single-digit micromolar.

On to `O=C(NCC1CC1)N1CCC(c2nc(-c3ccc(F)cc3)no2)CC1`, for which, in experiment [1], the inhibition of growth at 50 µM was under 20%.

`O=C(N1CCOCC1)N1CCC(c2nc(-c3ccc(F)cc3)no2)CC1`: in experiment [1], the inhibition of growth at 50 µM is under 20%.

As to `O=C(N1CCC(c2nc(-c3ccc(F)cc3)no2)CC1)N1CCc2ccccc21`, the inhibition of growth at 50 µM in experiment [1] is under 20%.

On to `Cc1ccccc1-c1noc(C2CCN(C(=O)NCc3ccccc3)CC2)n1`, for which, in experiment [2], the concentration for 50% growth inhibition (GI50) worked out at 12300 nM. In other words, the double-digit micromolar range.

Turning to `O=C(NCCc1ccccc1)N1CCC(c2nc(-c3ccc(F)cc3)no2)CC1`, the GI50 in experiment [2] was found to be 13600 nM.

With `O=C(NCc1ccsc1)N1CCC(c2nc(Cc3ccccc3)no2)CC1`, in experiment [2], the 50% growth inhibitory concentration (GI50) was 120 nM.

For `O=C(NCCc1c[nH]c2ccccc12)N1CCC(c2nc(-c3ccc(F)cc3)no2)CC1`, halving of growth in experiment [2] (GI50) required 9800 nM.

For `O=C(N1CCC(c2nc(-c3ccc(F)cc3)no2)CC1)N1CCc2ccccc2C1`, in experiment [2], it took 21000 nM to inhibit growth by half (GI50).

Regarding `CC(C)Cc1noc(C2CCN(C(=O)NCc3ccccc3)CC2)n1`, the inhibition of growth at 50 µM in experiment [1] is under 20%.

With `C#CCNC(=O)N1CCC(c2nc(-c3ccc(F)cc3)no2)CC1`, in experiment [1], the inhibition of growth at 50 µM was under 20%.

Turning to `O=C(NCc1ccccc1)N1CCC(c2nc(COc3ccccc3)no2)CC1`, the concentration for 50% growth inhibition (GI50) in experiment [2] worked out at 520 nM.

Regarding `O=C(N1CCCCC1)N1CCC(c2nc(-c3ccc(F)cc3)no2)CC1`, in experiment [1], the inhibition of growth at 50 µM was under 20%.

With `O=C(NCc1cccs1)N1CCC(c2nc(-c3ccc(F)cc3)no2)CC1`, in experiment [2], the GI50 came out at 1700 nM.

As for `O=C(NCc1ccccc1)N1CCC(c2nc(-c3ccc(F)cc3Cl)no2)CC1`, the 50% growth inhibitory concentration (GI50) in experiment [2] is 2900 nM.

As to `Cc1cccc(-c2noc(C3CCN(C(=O)NCc4ccccc4)CC3)n2)c1`, the GI50 in experiment [2] is 1200 nM.

Turning to `Cc1noc(C2CCN(C(=O)NCc3ccccc3)CC2)n1`, the inhibition of growth at 50 µM in experiment [1] is under 20%.

`Cc1cc(CNC(=O)N2CCC(c3nc(COc4ccccc4)no3)CC2)nn1C` showed a 50% growth inhibitory concentration (GI50) in experiment [2] of 2800 nM.

Turning to `CN(Cc1ccco1)C(=O)N1CCC(c2nc(-c3ccc(F)cc3)no2)CC1`, the concentration for 50% growth inhibition (GI50) in experiment [2] was 17000 nM.

Compound `O=C(NCc1ccsc1)N1CCC(c2nc(Cc3ccccc3)no2)C1` (configuration not stated) gave a GI50 in experiment [2] of 6500 nM.

Compound `O=C(NCc1ccco1)N1CCC(c2nc(-c3ccccc3)no2)CC1` gave a GI50 in experiment [2] of 6000 nM.

For `O=C(NCc1ccccc1)N1CCC(c2nc(CCN3CCOCC3)no2)CC1`, the GI50 in experiment [2] was found to be 11200 nM. Against the preceding compound, the GI50 is about 1.9-fold higher.

As for `O=C(NCc1ccc2c(c1)OCO2)N1CCC(c2nc(-c3ccc(F)cc3)no2)CC1`, growth in experiment [2] was halved (GI50) at 1300 nM.

As to `Cc1cc(CNC(=O)N2CCC(c3nc(-c4ccc(F)cc4)no3)CC2)nn1C`, the concentration for 50% growth inhibition (GI50) in experiment [2] is 940 nM.

With `O=C(NCc1ccsc1)N1CCC(c2nc(-c3ccc(F)cc3)no2)CC1`, the 50% growth inhibitory concentration (GI50) in experiment [2] stood at 650 nM.
